Read-outs that look alike come from different tables or passages of the source.
Molecular target: T1, PI3K delta (Homo sapiens, UniProt O00329)
T1 construct: for the full-length p110-d subunit are generated and fused by overlapping PCR; His tag (C); made in house; host or cells: baculovirus BV1060; Tn5 (Trichoplusia ni) or TiniPro insect cells
Test: PI3K delta kinase assay (Kinase-Glo luminescence)
Type: biochemical
Method in brief: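 IC50s derive from 8-point inhibition curves fitted to a 4-parameter logistic model. Reaction: 10 nM purified p110δ/p85 iSH2 fusion, 1 μM ATP, 10 μg/mL PI substrate, pH 7.5 Tris buffer with MgCl2, NaCl, CHAPS and DTT, run 60 min at room temperature; remaining ATP read by Kinase-Glo luminescence.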

T1 sequence (O00329 with tags, fused parts or gaps limits assumed): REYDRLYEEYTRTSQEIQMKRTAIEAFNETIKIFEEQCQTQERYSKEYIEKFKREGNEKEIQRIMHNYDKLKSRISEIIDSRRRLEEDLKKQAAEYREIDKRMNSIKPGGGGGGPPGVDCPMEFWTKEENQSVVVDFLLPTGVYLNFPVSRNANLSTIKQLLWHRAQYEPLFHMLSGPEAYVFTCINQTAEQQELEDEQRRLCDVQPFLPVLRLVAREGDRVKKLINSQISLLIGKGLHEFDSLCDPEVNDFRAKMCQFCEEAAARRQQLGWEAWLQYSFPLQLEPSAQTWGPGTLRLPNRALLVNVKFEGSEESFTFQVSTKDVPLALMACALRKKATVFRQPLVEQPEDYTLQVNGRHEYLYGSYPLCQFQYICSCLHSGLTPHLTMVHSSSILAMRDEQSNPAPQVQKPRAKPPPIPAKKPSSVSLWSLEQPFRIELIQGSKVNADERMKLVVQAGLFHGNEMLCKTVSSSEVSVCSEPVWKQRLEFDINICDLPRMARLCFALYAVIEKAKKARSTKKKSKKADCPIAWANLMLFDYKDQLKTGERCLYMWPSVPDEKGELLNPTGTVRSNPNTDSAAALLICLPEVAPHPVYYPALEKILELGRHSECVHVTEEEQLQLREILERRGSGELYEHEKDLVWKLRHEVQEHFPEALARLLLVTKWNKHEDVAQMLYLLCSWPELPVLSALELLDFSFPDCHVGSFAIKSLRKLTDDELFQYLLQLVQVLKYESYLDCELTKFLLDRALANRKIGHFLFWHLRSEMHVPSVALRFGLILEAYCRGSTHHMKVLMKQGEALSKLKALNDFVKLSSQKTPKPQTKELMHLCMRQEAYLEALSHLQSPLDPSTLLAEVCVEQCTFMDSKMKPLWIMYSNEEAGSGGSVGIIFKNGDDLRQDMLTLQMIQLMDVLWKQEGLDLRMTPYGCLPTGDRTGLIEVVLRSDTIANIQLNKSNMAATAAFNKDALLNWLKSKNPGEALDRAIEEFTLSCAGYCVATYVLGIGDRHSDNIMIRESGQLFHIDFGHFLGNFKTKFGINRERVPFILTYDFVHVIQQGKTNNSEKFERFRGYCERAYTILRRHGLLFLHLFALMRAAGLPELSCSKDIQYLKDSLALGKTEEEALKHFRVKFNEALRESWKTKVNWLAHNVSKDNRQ

## CNc1ncc(-c2ccc3ncc4c(c3c2)n(-c2ccc(N3CC[C@H](O)C3)nc2C)c(=O)n4C)cc1C(F)(F)F [Example 32.5, 1-[6-((S)-3-Hydroxy-pyrrolidin-1-yl)-2-methyl-pyridin-3-yl]-3-methyl-8-(6-methylamino-5-trifluoromethyl-pyridin-3-yl)-1,3-dihydro-imidazo[4,5-c]quinolin-2-one]
read-out: EPK_PI3Kdelta/IC50
  IC50: 4 nM

## CCOc1cc(-c2ccc3ncc4c(c3c2)n(-c2ccc(OCCOC)nc2C)c(=O)n4C)cnc1COC [Example 22.1, 8-(5-Ethoxy-6-methoxymethyl-pyridin-3-yl)-1-[6-(2-methoxy-ethoxy)-2-methyl-pyridin-3-yl]-3-methyl-1,3-dihydro-imidazo[4,5-c]quinolin-2-one]
read-out: EPK_PI3Kdelta/IC50
  IC50: 60 nM

## COc1ncc(-c2ccc3ncc4c(c3c2)n(-c2ccc(N3CC[C@H](O)C3)nc2C)c(=O)n4C)c(OC)n1 [Example 32.3, 8-(2,4-Dimethoxy-pyrimidin-5-yl)-1-[6-((S)-3-hydroxy-pyrrolidin-1-yl)-2-methyl-pyridin-3-yl]-3-methyl-1,3-dihydro-imidazo[4,5-c]quinolin-2-one]
read-out: EPK_PI3Kdelta/IC50
  IC50: 11 nM

## Cc1nc(C(C)(C)O)ccc1-n1c(=O)n(C)c2cnc3ccc(-c4cncc(C5(C#N)CCC5)c4)cc3c21 [Example 31.8, 1-(5-{1-[6-(1-Hydroxy-1-methyl-ethyl)-2-methyl-pyridin-3-yl]-3-methyl-2-oxo-2,3-dihydro-1H-imidazo[4,5-c]quinolin-8-yl}-pyridin-3-yl)-cyclobutanecarbonitrile]
read-out: EPK_PI3Kdelta/IC50
  IC50: 7 nM

## CCNc1ncc(-c2ccc3ncc4c(c3c2)n(-c2ccc(C(C)(C)O)nc2C)c(=O)n4C)cn1 [Example 31.7, 8-(2-Ethylamino-pyrimidin-5-yl)-1-[6-(1-hydroxy-1-methyl-ethyl)-2-methyl-pyridin-3-yl]-3-methyl-1,3-dihydro-imidazo[4,5-c]quinolin-2-one]
read-out: EPK_PI3Kdelta/IC50
  IC50: 27 nM

## CCOc1cc(-c2ccc3ncc4c(c3c2)n(-c2ccc(N3CCCC3)nc2C)c(=O)n4C)cnc1COC [Example 25.2, 8-(5-Ethoxy-6-methoxymethyl-pyridin-3-yl)-3-methyl-1-(2-methyl-6-pyrrolidin-1-yl-pyridin-3-yl)-1,3-dihydro-imidazo[4,5-c]quinolin-2-one]
read-out: EPK_PI3Kdelta/IC50
  IC50: 43 nM

## Cc1ccncc1-n1c(=O)n(C)c2cnc3ccc(-c4ccc(CO)nc4)cc3c21 [Example 4.1, 8-(6-Hydroxymethyl-pyridin-3-yl)-3-methyl-1-(4-methyl-pyridin-3-yl)-1,3-dihydro-imidazo[4,5-c]quinolin-2-one]
read-out: PI3Kdelta/IC50
  IC50: 406 nM

## Cc1nc(N2CC[C@H](O)C2)ccc1-n1c(=O)n(C)c2cnc3ccc(-c4cncc(OC(C)C)c4)cc3c21 [Example 32.8, 1-[6-((S)-3-Hydroxy-pyrrolidin-1-yl)-2-methyl-pyridin-3-yl]-8-(5-isopropoxy-pyridin-3-yl)-3-methyl-1,3-dihydro-imidazo[4,5-c]quinolin-2-one]
read-out: EPK_PI3Kdelta/IC50
  IC50: 39 nM

## CNc1ncc(-c2ccc3ncc4c(c3c2)n(-c2ccc(N3CC[C@H](O)C3)nc2C)c(=O)n4C)cn1 [Example 32.1, 1-[6-((S)-3-Hydroxy-pyrrolidin-1-yl)-2-methyl-pyridin-3-yl]-3-methyl-8-(2-methylamino-pyrimidin-5-yl)-1,3-dihydro-imidazo[4,5-c]quinolin-2-one]
read-out: EPK_PI3Kdelta/IC50
  IC50: 9 nM

## COc1ncccc1-n1c(=O)n(C)c2cnc3ccc(-c4cnc5[nH]ccc5c4)cc3c21 [Example 1.2, 1-(2-Methoxy-pyridin-3-yl)-3-methyl-8-(1H-pyrrolo[2,3-b]pyridin-5-yl)-1,3-dihydro-imidazo[4,5-c]quinolin-2-one]
read-out: PI3Kdelta/IC50
  IC50: 13 nM

## Cc1ncccc1-n1c(=O)n(C)c2cnc3ccc(-c4cnc(N(C)C)nc4)cc3c21 [Example 2.15, 8-(2-Dimethylamino-pyrimidin-5-yl)-3-methyl-1-(2-methyl-pyridin-3-yl)-1,3-dihydro-imidazo[4,5-c]quinolin-2-one]
read-out: PI3Kdelta/IC50
  IC50: 32 nM

## CCOc1ccc(-c2ccc3ncc4c(c3c2)n(-c2cnccc2C)c(=O)n4C)cn1 [Example 4.2, 8-(6-Ethoxy-pyridin-3-yl)-3-methyl-1-(4-methyl-pyridin-3-yl)-1,3-dihydro-imidazo[4,5-c]quinolin-2-one]
read-out: PI3Kdelta/IC50
  IC50: 401 nM

## CNc1ncc(-c2ccc3ncc4c(c3c2)n(-c2ccc(N3CC(O)C3)nc2C)c(=O)n4C)cc1C(F)(F)F [Example 29.4, 1-[6-(3-Hydroxy-azetidin-1-yl)-2-methyl-pyridin-3-yl]-3-methyl-8-(6-methylamino-5-trifluoromethyl-pyridin-3-yl)-1,3-dihydro-imidazo[4,5-c]quinolin-2-one]
read-out: EPK_PI3Kdelta/IC50
  IC50: 13 nM

## CCOc1ncc(-c2ccc3ncc4c(c3c2)n(-c2cccnc2C)c(=O)n4C)cn1 [Example 2.5, 8-(2-Ethoxy-pyrimidin-5-yl)-3-methyl-1-(2-methyl-pyridin-3-yl)-1,3-dihydro-imidazo[4,5-c]quinolin-2-one]
read-out: PI3Kdelta/IC50
  IC50: 58 nM

## CCNc1cc(-c2ccc3ncc4c(c3c2)n(-c2ccc(N3CCC3)nc2C)c(=O)n4C)cnc1CO [Example 23.8, 1-(6-Azetidin-1-yl-2-methyl-pyridin-3-yl)-8-(5-ethylamino-6-hydroxymethyl-pyridin-3-yl)-3-methyl-1,3-dihydro-imidazo[4,5-c]quinolin-2-one]
read-out: EPK_PI3Kdelta/IC50
  IC50: 17 nM

## CNc1ncc(-c2ccc3ncc4c(c3c2)n(-c2ccc(N(C)CCO)nc2C)c(=O)n4C)cn1 [Example 26.2, 1-{6-[(2-Hydroxy-ethyl)-methyl-amino]-2-methyl-pyridin-3-yl}-3-methyl-8-(2-methylamino-pyrimidin-5-yl)-1,3-dihydro-imidazo[4,5-c]quinolin-2-one]
read-out: EPK_PI3Kdelta/IC50
  IC50: 88 nM

## Cc1cccnc1-n1c(=O)n(C)c2cnc3ccc(-c4ccc(CO)nc4)cc3c21 [Example 3.9, 8-(6-Hydroxymethyl-pyridin-3-yl)-3-methyl-1-(3-methyl-pyridin-2-yl)-1,3-dihydro-imidazo[4,5-c]quinolin-2-one]
read-out: PI3Kdelta/IC50
  IC50: 583 nM

## CNc1ncc(-c2ccc3ncc4c(c3c2)n(-c2ccc(N3CC(F)(F)C3)nc2C)c(=O)n4C)cn1 [Example 24.1, 1-[6-(3,3-Difluoro-azetidin-1-yl)-2-methyl-pyridin-3-yl]-3-methyl-8-(2-methylamino-pyrimidin-5-yl)-1,3-dihydro-imidazo[4,5-c]quinolin-2-one]
read-out: EPK_PI3Kdelta/IC50
  IC50: 164 nM

## CCNc1cc(-c2ccc3ncc4c(c3c2)n(-c2ccc(N3CC(O)C3)nc2C)c(=O)n4C)cnc1CO [Example 29.2, 8-(5-Ethylamino-6-hydroxymethyl-pyridin-3-yl)-1-[6-(3-hydroxy-azetidin-1-yl)-2-methyl-pyridin-3-yl]-3-methyl-1,3-dihydro-imidazo[4,5-c]quinolin-2-one]
read-out: EPK_PI3Kdelta/IC50
  IC50: 19 nM

## CCOc1cc(-c2ccc3ncc4c(c3c2)n(-c2ccc(F)nc2C)c(=O)n4C)cnc1COC [Example 7.5, 8-(5-Ethoxy-6-methoxymethyl-pyridin-3-yl)-1-(6-fluoro-2-methyl-pyridin-3-yl)-3-methyl-1,3-dihydro-imidazo[4,5-c]quinolin-2-one]
read-out: EPK_PI3Kdelta/IC50
  IC50: 78 nM

## CCOc1cc(-c2ccc3ncc4c(c3c2)n(-c2cccnc2C)c(=O)n4C)cnc1COC [Example 2.28, 8-(5-Ethoxy-6-methoxymethyl-pyridin-3-yl)-3-methyl-1-(2-methyl-pyridin-3-yl)-1,3-dihydro-imidazo[4,5-c]quinolin-2-one]
read-out: EPK_PI3Kdelta/IC50
  IC50: 54 nM

## Cc1ncccc1-n1c(=O)n(C)c2cnc3ccc(-c4ccc(CO)nc4)cc3c21 [Example 2.6, 8-(6-Hydroxymethyl-pyridin-3-yl)-3-methyl-1-(2-methyl-pyridin-3-yl)-1,3-dihydro-imidazo[4,5-c]quinolin-2-one]
read-out: PI3Kdelta/IC50
  IC50: 59 nM
